The values that follow come from patent US20240270751A1, “Pyrazolopyridinone Compounds” (BeiGene Ltd., priority 2021, published 2024).

SMILES strings stand for the structures.

The target of one assay is DGKα (Homo sapiens (Human), UniProt P23743). The assay is described as follows: Biochemical DGK IC50 assay, DGKα ADP-Glo assay. Particulars: 7.5 nM enzyme, 140 μM ATP, 80 μM DAG. The gist of the method: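 Compounds at final 1.55˜10000 nM or 23.3˜150000 nM were tested against full-length DGKα. Substrate was lipid micelles of DAG and PS resuspended in 25 mM HEPES pH 7.0 with 0.5 mM EDTA and 160 mM octyl β-D-glucopyranoside. ADP formed was detected by ADP-Glo.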
For orientation: ADP-Glo turns the ADP formed in a reaction into a luminescent signal.

Another assay addresses DGKζ (Homo sapiens (Human), UniProt Q13574). Kind of assay: Biochemical DGK IC50 assay, DGKζ ADP-Glo assay. To be noted: 0.5 nM enzyme, 140 μM ATP, 80 μM DAG; read-out: DGKζ ADP-Glo assay IC50. The gist of the method:
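ADP formation measured by ADP-Glo luminescence, with test compounds at final 1.55–10000 nM or 23.3–150000 nM. Enzyme: purified full-length human DGKζ from Sf9 insect cells; substrate: DAG/PS micelles in 25 mM HEPES pH 7.0, 0.5 mM EDTA, octyl glucoside.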

DGKα, sequence (P23743 whole entry): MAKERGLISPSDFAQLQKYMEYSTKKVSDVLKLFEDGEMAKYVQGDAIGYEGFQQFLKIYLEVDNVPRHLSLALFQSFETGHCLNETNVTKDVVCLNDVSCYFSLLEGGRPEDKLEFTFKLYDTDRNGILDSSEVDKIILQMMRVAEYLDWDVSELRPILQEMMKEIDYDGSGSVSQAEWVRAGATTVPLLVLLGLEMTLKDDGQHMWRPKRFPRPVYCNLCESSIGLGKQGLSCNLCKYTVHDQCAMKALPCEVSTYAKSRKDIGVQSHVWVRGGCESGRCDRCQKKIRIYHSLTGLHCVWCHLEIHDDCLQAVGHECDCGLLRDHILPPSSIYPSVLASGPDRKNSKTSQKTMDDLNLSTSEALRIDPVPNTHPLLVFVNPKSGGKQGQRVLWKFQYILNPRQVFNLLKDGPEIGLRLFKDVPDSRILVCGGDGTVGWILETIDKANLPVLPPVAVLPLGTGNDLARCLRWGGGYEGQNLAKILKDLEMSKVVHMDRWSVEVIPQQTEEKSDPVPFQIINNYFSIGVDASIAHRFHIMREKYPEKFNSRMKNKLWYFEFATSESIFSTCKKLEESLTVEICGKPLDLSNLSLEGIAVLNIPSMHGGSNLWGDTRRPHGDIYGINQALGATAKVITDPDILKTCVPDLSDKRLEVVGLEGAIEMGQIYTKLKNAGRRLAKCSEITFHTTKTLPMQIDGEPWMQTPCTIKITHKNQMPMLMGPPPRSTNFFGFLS
DGKζ, sequence (Q13574 other isoform, or with tags, fused parts or gaps): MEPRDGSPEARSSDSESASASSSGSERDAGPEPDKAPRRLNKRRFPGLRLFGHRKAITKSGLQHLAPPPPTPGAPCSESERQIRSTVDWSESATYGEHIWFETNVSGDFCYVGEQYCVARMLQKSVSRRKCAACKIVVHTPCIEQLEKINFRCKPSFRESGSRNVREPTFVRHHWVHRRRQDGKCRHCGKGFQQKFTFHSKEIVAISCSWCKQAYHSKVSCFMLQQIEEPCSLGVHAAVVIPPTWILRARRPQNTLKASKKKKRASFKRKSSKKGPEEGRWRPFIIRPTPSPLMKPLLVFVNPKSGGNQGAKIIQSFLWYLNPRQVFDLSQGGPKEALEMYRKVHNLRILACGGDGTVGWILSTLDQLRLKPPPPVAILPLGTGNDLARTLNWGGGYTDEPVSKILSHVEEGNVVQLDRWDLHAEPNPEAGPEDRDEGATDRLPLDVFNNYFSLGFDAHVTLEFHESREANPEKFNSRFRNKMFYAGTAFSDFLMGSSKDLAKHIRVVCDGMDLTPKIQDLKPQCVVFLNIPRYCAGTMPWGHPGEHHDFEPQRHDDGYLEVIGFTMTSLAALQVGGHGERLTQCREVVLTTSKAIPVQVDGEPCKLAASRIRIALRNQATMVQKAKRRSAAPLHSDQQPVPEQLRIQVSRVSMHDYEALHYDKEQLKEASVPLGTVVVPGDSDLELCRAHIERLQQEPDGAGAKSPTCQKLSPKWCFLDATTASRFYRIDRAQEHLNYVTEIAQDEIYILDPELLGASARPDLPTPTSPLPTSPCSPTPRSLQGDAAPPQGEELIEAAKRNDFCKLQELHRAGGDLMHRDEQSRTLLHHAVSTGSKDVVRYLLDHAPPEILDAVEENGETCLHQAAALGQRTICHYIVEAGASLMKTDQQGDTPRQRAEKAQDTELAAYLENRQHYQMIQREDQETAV

As a reminder, the IC50 is the concentration at which inhibition is half-maximal. Take `CC[C@H]1CN(C(C)c2ccc(CN3C[C@@H](C)O[C@@H](C)C3)cc2)[C@H](CC)CN1c1cc(=O)n(C)c2cn(CC#N)nc12` (stereo partly drawn) [Compound A343, 2-(7-((2S,5R)-4-(1-(4-(((2S,6R)-2,6-dimethylmorpholino)methyl)phenyl)ethyl)-2,5-diethylpiperazin-1-yl)-4-methyl-5-oxo-4,5-dihydro-2H-pyrazolo[4,3-b]pyridin-2-yl)acetonitrile]: the half-maximal inhibitory concentration (IC50) is 0.246 µM against DGKα and 0.675 µM on DGKζ.

Consider `CC(c1ccc2c(c1)OC1(CC1)CO2)N1C[C@H](C)N(c2cc(=O)n(C)c3cn(CC#N)nc23)C[C@H]1C` (stereo partly drawn) [Compound A323, 2-(7-((2S,5R)-4-(1-(3H-spiro[benzo[b][1,4]dioxine-2,1′-cyclopropan]-7-yl)ethyl)-2,5-dimethylpiperazin-1-yl)-4-methyl-5-oxo-4,5-dihydro-2H-pyrazolo[4,3-b]pyridin-2-yl)acetonitrile], for which the IC50 on DGKα is 10.7 µM; at DGKζ, 0.007 µM.

As to `CC(c1c(Cl)cc(F)cc1Cl)N1C[C@H](C)N(c2cc(=O)n(C)c3cn(CC#N)nc23)C[C@H]1C` (stereo partly drawn) [Compound A272], the 50% inhibitory concentration (IC50) was over 10 µM at DGKα and 0.411 µM on DGKζ.

As to `CC[C@H]1CN(C(C)c2cc(C(F)(F)F)nn2CC)[C@H](CC)CN1c1cc(=O)n(C)c2cn(CC#N)nc12` (stereo partly drawn) [Compound A211], the concentration for half-maximal inhibition (IC50) on DGKα was 2.76 µM; on DGKζ it was 0.234 µM.

Turning to `CC[C@H]1CN(C(C)c2ccc3nccnc3c2)[C@H](CC)CN1c1cc(=O)n(CCO)c2cn(CC#N)nc12` (stereo partly drawn) [Compound A95, 2-(7-((2S,5R)-2,5-diethyl-4-(1-(quinoxalin-6-yl)ethyl)piperazin-1-yl)-4-(2-hydroxyethyl)-5-oxo-4,5-dihydro-2H-pyrazolo[4,3-b]pyridin-2-yl)acetonitrile], the concentration for half-maximal inhibition (IC50) on DGKα came to 12.2 µM; at DGKζ it was 0.053 µM.

For `C=CCn1cc2c(n1)c(N1C[C@@H](C)N(C(C)c3ccc4nccnc4c3)C[C@@H]1C)cc(=O)n2C` (single isomer, unassigned) [Compound A299, 2-allyl-7-((2S,5R)-2,5-dimethyl-4-((S)-1-(quinoxalin-6-yl)ethyl)piperazin-1-yl)-4-methyl-2,4-dihydro-5H-pyrazolo[4,3-b]pyridin-5-one, or 2-allyl-7-((2S,5R)-2,5-dimethyl-4-((R)-1-(quinoxalin-6-yl)ethyl)piperazin-1-yl)-4-methyl-2,4-dihydro-5H-pyrazolo[4,3-b]pyridin-5-one], the IC50 on DGKα came out at 66.1 µM; on DGKζ, 0.09 µM.

As for `CC[C@H]1CN(C(C)c2ccc(C(C)(C)C#N)cc2F)[C@H](CC)CN1c1cc(=O)n(C)c2cn(CC#N)nc12` (stereo partly drawn) [Compound A345, 2-(4-(1-((2R,5S)-4-(2-(cyanomethyl)-4-methyl-5-oxo-4,5-dihydro-2H-pyrazolo[4,3-b]pyridin-7-yl)-2,5-diethylpiperazin-1-yl)ethyl)-3-fluorophenyl)-2-methylpropanenitrile], the figures for the IC50 against DGKα and at DGKζ were 0.852 µM and 0.205 µM, respectively.

Regarding `CC[C@H]1CN(C(C)c2cnc(C)c(C)n2)[C@H](CC)CN1c1cc(=O)n(C)c2cn(CC#N)nc12` (single isomer, unassigned) [Compound A355b], the IC50 at DGKα was determined as 2.15 µM; on DGKζ it was 0.176 µM.

For the compound `Cc1ccc2ccc(C(C)N3C[C@H](C)N(c4cc(=O)n(C)c5cn(CC#N)nc45)C[C@H]3C)cc2n1` (stereo partly drawn) [Compound A306], the concentration for half-maximal inhibition (IC50) came to 18.2 µM against DGKα and 0.495 µM on DGKζ.

Consider `Cc1cnc2ccc([C@H](C)N3C[C@H](C)N(c4cc(=O)n(C)c5cn(CC=C(F)F)nc45)C[C@H]3C)cc2n1` [Compound A303, 2-(3,3-difluoroallyl)-7-((2S,5R)-2,5-dimethyl-4-((S)-1-(3-methylquinoxalin-6-yl)ethyl)piperazin-1-yl)-4-methyl-2,4-dihydro-5H-pyrazolo[4,3-b]pyridin-5-one], for which the IC50 against DGKα turned out to be 102 µM; on DGKζ, 0.019 µM.

As to `C[C@@H]1CN(c2c(Cl)c(=O)n(C)c3cn(CC#N)nc23)[C@@H](C)CN1[C@@H](C)c1ccc2nccnc2c1` [Compound A133, 2-(6-chloro-7-((2S,5R)-2,5-dimethyl-4-((S)-1-(quinoxalin-6-yl)ethyl)piperazin-1-yl)-4-methyl-5-oxo-4,5-dihydro-2H-pyrazolo[4,3-b]pyridin-2-yl)acetonitrile], the IC50 on DGKα is over 10 µM; on DGKζ it was 9.39 µM.

For the compound `CC[C@H]1CN(C(C)c2ccc(F)cc2OC(C)C)[C@H](CC)CN1c1cc(=O)n(C)c2cn(CC#N)nc12` (stereo partly drawn) [Compound A142], the IC50 on DGKα is 6.58 µM; on DGKζ, 1.22 µM.

Regarding `CC[C@@H]1CN(c2cc(=O)n(C)c3cn(CC#N)nc23)[C@@H](C)CN1C(C)c1ccc(C(F)(F)F)cc1F` (single isomer, unassigned) [Compound A202a], the IC50 turned out to be 0.7 µM against DGKα and 0.176 µM on DGKζ.

Turning to `CC[C@H]1CN(C(C)c2ccc(C)nc2)[C@H](CC)CN1c1cc(=O)n(C)c2cn(CC#N)nc12` (single isomer, unassigned) [Compound A349b], the IC50 on DGKα is 1.58 µM; on DGKζ, 4.24 µM.

For the compound `CC[C@H]1CN(C(C)c2cccnc2OC)[C@H](CC)CN1c1cc(=O)n(C)c2cn(CC#N)nc12` (stereo partly drawn) [Compound A105], the half-maximal inhibitory concentration (IC50) came to 8.92 µM on DGKα and 0.258 µM on DGKζ.

Take `Cc1nc2cc(C(C)N3C[C@H](C)N(c4cc(=O)n(C)c5cn(CC#N)nc45)C[C@H]3C)ccc2o1` (stereo partly drawn) [Compound A41]: the IC50 at DGKα is over 10 µM; at DGKζ it was 1 µM.

For the compound `COCc1cc(C(C)N2C[C@H](C)N(c3cc(=O)n(C)c4cn(CC#N)nc34)C[C@H]2C)ccc1F` (stereo partly drawn) [Compound A30], the IC50 was found to be 5.1 µM at DGKα and 0.11 µM on DGKζ.

`CC[C@H]1CN(C(C)c2ncc(OC(C)C)cc2F)[C@H](CC)CN1c1cc(=O)n(C)c2cn(CC#N)nc12` (stereo partly drawn) [Compound A387]: the IC50 against DGKα came to 75 µM; on DGKζ, 4.89 µM.

As to `CC[C@H]1CN(C(C)c2ccccc2OC(F)(F)F)[C@H](CC)CN1c1cc(=O)n(C)c2cn(CC#N)nc12` (stereo partly drawn) [Compound A80], the 50% inhibitory concentration (IC50) is over 10 µM against DGKα and 0.663 µM at DGKζ.

Consider `CC[C@H]1CN(C(C)c2ccc3c(n2)C(C)(C)CO3)[C@H](CC)CN1c1cc(=O)n(C)c2cn(CC#N)nc12` (stereo partly drawn) [Compound A352, 2-(7-((2S,5R)-4-(1-(3,3-dimethyl-2,3-dihydrofuro[3,2-b]pyridin-5-yl)ethyl)-2,5-diethylpiperazin-1-yl)-4-methyl-5-oxo-4,5-dihydro-2H-pyrazolo[4,3-b]pyridin-2-yl)acetonitrile], for which the half-maximal inhibitory concentration (IC50) on DGKα came to 5.4 µM; on DGKζ, 0.006 µM.

Regarding `CC(c1ccc2nccnc2c1)N1CCN(c2cc(=O)n(C)c3cn(CC#N)nc23)C[C@@H]1C` (stereo partly drawn) [Compound A178], the IC50 is over 10 µM against DGKα and 6.9 µM at DGKζ.

In the case of `CC(c1cc2ccccc2cn1)N1C[C@H](C)N(c2cc(=O)n(C)c3cn(CC#N)nc23)C[C@H]1C` (stereo partly drawn) [Compound A305], the IC50 at DGKα amounted to 1.49 µM; at DGKζ, 1.19 µM.

For `CC(c1ccc2c(c1)OCCO2)N1C[C@H](C)N(c2cc(=O)n(C)c3cn(CC#N)nc23)C[C@H]1C` (stereo partly drawn) [Compound A43], the concentration for half-maximal inhibition (IC50) on DGKα turned out to be 2.9 µM; on DGKζ, 0.065 µM.

In the case of `CC[C@H]1CN(C(C(=O)NCCOC)c2ccc(C(F)(F)F)cc2)[C@H](CC)CN1c1cc(=O)n(C)c2cn(CC#N)nc12` (stereo partly drawn) [Compound A296, 2-((2R,5S)-4-(2-(cyanomethyl)-4-methyl-5-oxo-4,5-dihydro-2H-pyrazolo[4,3-b]pyridin-7-yl)-2,5-diethylpiperazin-1-yl)-N-(2-methoxyethyl)-2-(4-(trifluoromethyl)phenyl)acetamide], the half-maximal inhibitory concentration (IC50) on DGKα amounted to 3.9 µM; at DGKζ, 0.189 µM.

Take `CC(c1ccc(F)cc1CC#N)N1C[C@H](C)N(c2cc(=O)n(C)c3cn(CC#N)nc23)C[C@H]1C` (single isomer, unassigned) [Compound A287a]: the values for the 50% inhibitory concentration (IC50) at DGKα and at DGKζ were over 10 µM and 9.68 µM, respectively.

As to `CC[C@H]1CN(C(C)c2ccc(C(C)(C)C#N)cc2)[C@H](CC)CN1c1cc(=O)n(C)c2cn(CC#N)nc12` (stereo partly drawn) [Compound A338], the IC50 was found to be 0.527 µM at DGKα and 0.16 µM at DGKζ.

Consider `CC[C@H]1CN(C(C)c2ccc(F)cc2OC)[C@H](CC)CN1c1cc(=O)n(CCO)c2cn(CC#N)nc12` (single isomer, unassigned) [Compound A153a], for which the IC50 was over 10 µM at DGKα and 9.34 µM on DGKζ.

With `CC[C@H]1CN(C(C)c2ccc(F)cc2CO)[C@H](CC)CN1c1cc(=O)n(C)c2cn(CC#N)nc12` (stereo partly drawn) [Compound A152, 2-(7-((2S,5R)-2,5-diethyl-4-(1-(4-fluoro-2-(hydroxymethyl)phenyl)ethyl)piperazin-1-yl)-4-methyl-5-oxo-4,5-dihydro-2H-pyrazolo[4,3-b]pyridin-2-yl)acetonitrile], the IC50 on DGKα came to 4.38 µM; at DGKζ, 1.77 µM.

Turning to `CC#CCn1cc2c(n1)c(N1C[C@@H](CC)N(C(C)c3nc4ccccc4n3CC)C[C@@H]1CC)cc(=O)n2C` (stereo partly drawn) [Compound A186], the 50% inhibitory concentration (IC50) is 6.37 µM against DGKα and 0.059 µM on DGKζ.

Regarding `CC[C@@H]1CN(c2cc(=O)n(C)c3cn(CC#N)nc23)[C@@H](CC)CN1C(=O)c1cc2cnccc2cn1` [Compound A371], the figures for the half-inhibitory concentration (IC50) against DGKα and at DGKζ were 0.717 µM and over 10 µM, respectively.
